This passage reports outcome, EC50 and IC50 results from PubChem BioAssay AID179 (DTP/NCI, 2004).

What is called EC50 is the concentration needed to bring the measured effect to its halfway point. Broadly, the IC50 is the concentration that gives 50% inhibition.

This experiment has as its system CEM cells HIV-1 protection, formazan growth assay. Nature of the experiment: NCI AIDS Antiviral Assay. As to conditions: for IC50: measured here: growth of uninfected CEM cells. The method, boiled down:
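Soluble formazan readout of cell growth; CEM cells ± HIV-1; 5 drug concs. ≥50% protection → retest; ≥50% again = moderately active; reproducible 100% = confirmed active.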

The source made the active and inactive calls.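 Rule for the calls: active = compounds giving half or more protection of infected cells from virus-caused growth loss, again on retest; inactive = the rest.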

`O=CC1=CN2C(c3ccoc3)CCC(CO)C2CC1` (stereo not given): the outcome was inactive. As to `O=C(O)CCC(NC(=O)c1ccccc1)C(=O)O` (stereo not given), the outcome was inactive. On to `COc1ccc([N+](=O)[O-])c2c(NCCCN(C)C)c3ccccc3nc12`, for which the EC50 was above 0.2 µM and the half-maximal inhibitory concentration (IC50) was found to be 0.138 µM.

Turning to `COc1ccccc1NC(=O)CC(=O)N/N=C/c1ccc(N(CCC#N)S(=O)(=O)c2ccccc2)cc1`, the EC50 is above 182 µM and the 50% inhibitory concentration (IC50) was above 182 µM.

In the case of `CCOC(=O)/C(C=Nc1c(C)n(C)n(-c2ccccc2)c1=O)=C(/O)c1ccccc1`, the EC50 is above 200 µM and the IC50 is above 200 µM. `CCCCCCCCCCCCCCCCNc1ccn(C2CC(OP(=O)(O)OCC3CCC(n4ccc(N)nc4=O)O3)C(CO)O2)c(=O)n1` (stereo not given): the EC50 was 1 µM and the IC50 turned out to be 97.7 µM.

For the compound `CC1=C(C(=O)Nc2ccc([N+](=O)[O-])cc2)C(c2ccc3c(c2)OCO3)C(C(=O)Nc2ccc([N+](=O)[O-])cc2)=C(C)N1`, the EC50 is above 6.76 µM and the IC50 was above 6.76 µM. Take `O=C1CC2(C(=O)O1)C1C(=O)OC(=O)C1C1c3ccccc3C=NN12` (stereo not given): the EC50 was above 692 µM and the IC50 is above 692 µM.

For the compound `CNn1c(C)n[nH]c1=O`, the EC50 was above 200 µM and the IC50 was above 200 µM.

Take `COC(=O)C1C=CCON2CCc3c(n(S(=O)(=O)c4ccccc4)c4ccccc34)C12` (stereo not given): the EC50 is above 22.9 µM and the IC50 is above 22.9 µM. `CCOC(=O)/C(=C\c1ccc(C#N)cc1)C(C)=O`: the EC50 was above 148 µM and the IC50 was found to be 77.6 µM. As for `Cn1cccc1/C=N/N=C(/N)NO`, the outcome was inactive. As to `CCC1C/C(=N\N=C2CC(C)(C)NC(C)(C)C2)CC(C)(C)N1` (stereo not given), the EC50 is above 200 µM and the IC50 is above 200 µM. As for `COC(=O)C(N)CSCc1ccccc1` (stereo not given), the EC50 was above 692 µM and the IC50 turned out to be 589 µM.

Turning to `COC(=O)N1C=CC2ON=C(OC)C2C1c1ccccc1` (stereo not given), the EC50 was above 46.8 µM and the IC50 was above 46.8 µM. With `CCCC1C[C@H]2CCCCN2[C@H]2CCCN12` (stereo not given in full), the EC50 was above 1120 µM and the IC50 was 550 µM. For the compound `C=CCNc1ncnc2sc(SC)nc12`, the EC50 is above 200 µM and the IC50 amounted to 107 µM. With `O=C1C(C=NC(=S)c2ccccc2)=C(O)c2ccccc21`, the EC50 is above 200 µM and the IC50 was 166 µM. Regarding `CC1CC/C(=C\c2ccc(Cl)cc2)c2nc(N)c(C#N)c(-c3ccc(Cl)cc3)c21` (stereo not given), the EC50 was above 200 µM and the IC50 is 155 µM.

Consider `COc1ccccc1/C=C(\C#N)c1ccccc1`, for which the EC50 was above 22.4 µM and the 50% inhibitory concentration (IC50) worked out at 11 µM. As for `CCCNC(=O)N(C(C)C)S(=O)(=O)c1ccc(Cl)cc1`, the result was inactive. On the same count and under the same terms, for `O=C(O)c1c(-c2cccc3ccccc23)sc(-c2cccc3ccccc23)c1C(=O)O` the value was “inactive”. Consider `CO/C(=N\N=C\c1ccc(Cl)cc1)c1ccncc1`, for which the EC50 is above 200 µM and the IC50 is above 200 µM.

As to `COC1(OC)CC(CO)(CNc2nc(N)nc(Cl)c2C=O)C1`, the EC50 was above 162 µM and the IC50 was 14.1 µM.

For `COc1cc(C2C(Cl)C(=O)N2NC(=O)Cc2ccccc2)ccc1O` (stereo not given), the EC50 is above 72.4 µM and the IC50 was above 72.4 µM. As for `O=[N+]([O-])c1cccc(/C=N\NS(=O)(=O)c2ccc(Cl)cc2)c1O`, the EC50 is above 363 µM and the half-inhibitory concentration (IC50) was 61.7 µM. The compound `NC(=O)c1ccc([As](=O)(O)O)cc1N` yielded an EC50 above 200 µM and an IC50 above 200 µM. With `COc1ccc(NC(=S)c2ccoc2C)cc1CC(=O)OC(C)C`, the EC50 is 0.174 µM and the IC50 was found to be 1.51 µM. For `O=C1CCC[C@H]2O[C@@H](COC(=O)c3ccccc3)C[C@H]2O1`, in that order: above 200 µM and above 200 µM.

With `C=CCn1c(N)c(C#N)c(C#N)c1-c1ccccc1`, the EC50 was above 200 µM and the IC50 is above 200 µM. For the compound `C1=NCCNCCN=Cc2ccc(cc2)OCc2cccc(n2)COc2ccc1cc2`, the EC50 is above 100 µM and the IC50 was above 100 µM. With `C[PH+](C)C.C[PH+](C)C.[C-]#[O+].[C-]#[O+].[C-]#[O+].[Fe]`, the EC50 is above 200 µM and the IC50 was determined as 49 µM. In the case of `CCn1c(SCC(=O)NNC(=S)Nc2ccc(C)cc2)nc2ccccc2c1=O`, the EC50 was above 200 µM and the IC50 was 105 µM. For `C=C1C[C@@H]2O[C@H]3[C@H]4[C@@H](C[C@@H](C)[C@@H](OC(C)=O)[C@H]42)[C@@H](C)CO[C@@]3(C)[C@H](OC(=O)CCCCCCC)C[C@H]1O`, the EC50 was above 200 µM and the IC50 stood at 11 µM. For `CC(=O)Nc1ccc(/C=C2\C=Cc3ccccc32)cc1`, the EC50 is above 20 µM and the IC50 turned out to be 13.2 µM. Consider `CC1=C[C@@]2(C=C(C(=O)O)[C@@]34CCCC(C)(C)C3C[C@@H]2OC4)OC1=O` (stereo not given in full), for which the EC50 is above 380 µM and the IC50 is above 380 µM. In the case of `CCOC(=O)NC1=NCC(C)S1` (stereo not given), the result was inactive. On to `c1cc(-c2ncc(-c3ccc4c(c3)CCCO4)o2)ccn1`, for which the EC50 is above 200 µM and the IC50 amounted to 11.2 µM. Turning to `CCOC(=O)/C=C1\CONC(c2ccc(OC)cc2)=N1`, the EC50 was above 19.1 µM and the IC50 is above 19.1 µM. Take `CSc1nc2nc(C)c(C)nc2c(=O)[nH]1`: the EC50 is above 1120 µM and the IC50 is above 1120 µM. As for `Cc1cc(S(=O)(=O)NC2=NCc3nc4ccccc4n32)c(S)cc1Cl`, the EC50 is above 200 µM and the IC50 is 35.5 µM. Regarding `C=CN1C(=O)OC[C@@H]1c1ccccc1`, the EC50 was above 513 µM and the IC50 is above 513 µM. Regarding `CC(=O)NCCc1c[nH]c2ccc(Cl)cc12`, the EC50 was above 200 µM and the IC50 was determined as 195 µM. As for `COc1ccc2nc(CC(C)C)c3c(c2c1)-c1ccccc1C3=O`, the EC50 is above 11.2 µM and the IC50 was above 11.2 µM. Consider `CSc1sc(=S)sc1C(=O)N(C)c1ccccc1`, for which the EC50 is above 200 µM and the half-inhibitory concentration (IC50) is above 200 µM. In the case of `COc1ccc(C)cc1-c1ccc(-c2cc(C)ccc2OC)o1`, the EC50 was above 72.4 µM and the IC50 stood at 58.9 µM.

`CCSc1nc(N)c2c(-c3ccccc3)c3c(nc2n1)CCC3`: the EC50 was above 100 µM and the IC50 is above 100 µM. Take `Nc1c(-c2nc3ccccc3s2)c2ccc([N+](=O)[O-])cc2c(=O)n1-c1cccc(C(=O)O)c1`: the EC50 stood at 7.76 µM and the IC50 was determined as 37.2 µM. On to `CC(=O)OCCOCN1C(=O)NC(=O)/C(=C/c2cccc(OCc3ccccc3)c2)C1=O`, for which the EC50 was above 200 µM and the IC50 is 18.2 µM. With `COc1cc2ccc3c4ccccc4cnc3c2cc1OC`, the EC50 is above 89.1 µM and the IC50 was above 89.1 µM. `Cc1ccc(S(=O)(=O)N/N=C2/C3CC4CCC2C4C3)cc1` (stereo not given): the EC50 is above 200 µM and the IC50 is above 200 µM. For `O=C1c2cccc3cccc(c23)C(=O)N1c1nccs1`, the EC50 was above 50.1 µM and the IC50 was above 50.1 µM.

`O=[N+]([O-])c1ccc2c(c1)c(OCc1ccccc1)nn2Cc1ccccc1`: the EC50 was above 200 µM and the 50% inhibitory concentration (IC50) amounted to 95.5 µM. The matching figures for `CCCC(=O)OCC(COC(=O)CCC)OC(=O)CCC`: above 200 µM and above 200 µM. `FC1(F)SC2CCCCCCCCCCC2C1(F)F` (stereo not given): the EC50 was above 200 µM and the IC50 is 91.2 µM.

Consider `O=c1c2c3c(sc2nc(CN2CCNCC2)n1-c1ccccc1)CCCC3`, for which the EC50 is above 100 µM and the IC50 is above 100 µM. Take `COC(=O)/C=C(\C(=O)OC)c1c(C)c(C)c2c(C)cc(C)cc(C)c1-2`: the EC50 was above 200 µM and the IC50 is 16.6 µM. For `CO/N=C1/c2sccc2[C@H](NC(=O)C(F)(F)F)[C@@H]1O`, the EC50 was above 200 µM and the IC50 is above 200 µM. For `Cc1cn(C2OC(C)(CO)C(O)C2O)c(=O)[nH]c1=O` (stereo not given), the EC50 was above 912 µM and the IC50 was above 912 µM. On to `CC(C)(C)C(C)(C)SSC(C)(C)C(C)(C)C`, for which the EC50 was above 200 µM and the IC50 was above 200 µM. As for `CC12CCC(OC3OC(CO)C(OC4OC(CO)C(O)C(O)C4O)C(O)C3O)CC1CCC1C2CCC2(C)C(C3=CC(=O)OC3)CCC12O` (stereo not given), the EC50 is above 20 µM and the IC50 stood at 0.309 µM. The matching figures for `CC(=O)NNc1nc(C)c(C(=O)NNC(=O)C(=O)Nc2ccc([N+](=O)[O-])cc2C#N)s1`: above 407 µM and 331 µM. Take `CC(C)(c1ccc(OC#N)cc1)c1ccc(OC#N)cc1`: the EC50 was above 67.6 µM and the IC50 was above 67.6 µM. Take `CCCCCCOc1ccc(C(=O)NOCc2ccccc2)cc1`: the EC50 was above 200 µM and the IC50 worked out at 66.1 µM.

On to `COC(=O)C(Cc1ccccc1)NP(=O)(O)OCC1OC(n2cc(I)c(=O)[nH]c2=O)CC1O` (stereo not given), for which the EC50 is above 200 µM and the IC50 is above 200 µM. As for `O=S(O)Cc1ccccc1CSSSCc1ccccc1CS(=O)O`, the EC50 is above 200 µM and the IC50 stood at 102 µM. With `CCSC1=C(C#N)C2(CCCCC2)C2=C(CC(C)(C)CC2=O)N1`, the EC50 was above 200 µM and the IC50 was above 200 µM. Take `C/C=C/CCC1CCCCN(C(=O)OC(C)(C)C)C1OCC` (stereo not given): the EC50 is above 60.3 µM and the IC50 was above 60.3 µM.

Regarding `CC(=O)OC12c3ccccc3C(c3ccccc31)C1C(=O)N(c3ccccn3)C(=O)C12` (stereo not given), the EC50 was above 200 µM and the IC50 was above 200 µM. For the compound `CC(=O)n1c(COc2ccc3c(C)cc(=O)oc3c2)nc2ccccc2c1=O`, the EC50 is above 91.2 µM and the IC50 was above 91.2 µM.

Take `CCOP(=S)(Nc1cccc(C(F)(F)F)c1)OCC`: the EC50 was above 200 µM and the IC50 was 166 µM.

Regarding `C[C@@H]1C[C@H]2[C@@H]3CCC4=CC(=O)CC[C@]4(C)[C@@]3(F)[C@@H](O)C[C@]2(C)[C@@]1(C)O`, the EC50 is above 200 µM and the IC50 was 87.1 µM. For `Cc1ccnc(NC(=O)Nc2ccccc2Cl)c1`, in that order: above 200 µM and above 200 µM.
